Values quoted from earlier work as cited in EP1550371A2, “Pesticidal compositions comprising an oxathiin and triazole fungicides” (Tovarystvo z obmegenoyu vidpovidalnistyu "Prezence", priority 2003, dated 2005).

Experiments:
rabbits = details: in rabbits
rats [1] = details: in rats
[2] = at 25 °C
rats [3] = details: in rats; remark: listed apart in the source
mice = details: in mice
quails = details: in quails
powdery mildew and rust = details: in experiments

## CC1=C(C(=O)Nc2ccccc2)SCCO1 [Carboxin, 5,6-dihydro-2-methyl-1,4-oxathiin-3-carboxanyl]
rabbits
  skin-resorptive LD50: above 8 g/kg
Rats [1]
  oral LD50: 3800 mg/kg
[2]
  Solubility in acetone: 60%
  Solubility in dimethylsulfoxide: 150%
  Solubility in ethyl alcohol: 21%
  Solubility in gasoline: 15%
  Solubility in methyl alcohol: 21%
  Solubility in water: 0.017%

## CC(C)(C)C(O)(CCc1ccc(Cl)cc1)Cn1cncn1 (stereo not shown) [Tebuconazol, RS-1-(4-chlorophenyl)-4,4-dimethyl-3-(1H-1,2,4-triazol-1-ilmethyl) pentan-3-ol]
Rats [3]
  skin-resorbtive toxicity: above 5 g/kg
Rats [1]
  oral LD50: 3900 to 5000 mg/kg
mice
  oral LD50: 1600 to 3900 mg/kg

## CC(C)(C)C(O)C(Oc1ccc(Cl)cc1)n1cncn1 (stereo not shown) [Triadimenol]
Rats [3]
  skin-resorbtive toxicity: above 5 g/kg
quails
  oral LD50: 10000 mg/kg
Powdery mildew and rust
  Protective systemic action against powdery mildew and rust: 4 to 8 days
Rats [1]
  oral LD50: 700 to 1500 mg/kg
mice
  oral LD50: 1300 mg/kg
